Source: patent publication US20110053964A1, “4-AMINOQUINAZOLINE DERIVATIVES AND METHODS OF USE THEREOF” (priority 2006, published 2011)

Legend:
[1] = Pharmacokinetics in rats, intravenous; assay type: in vivo, Sprague-Dawley rats; conditions: rat, single intravenous bolus 2 mg/kg; for half-life compared to lapatinib: tosylate salt (FIGS. 2 and 3)
Description: Rats were anesthetized using pentobarbital (IP 40 mg/kg) prior to administration of compound. […] The rats were administered a single bolus 2 mg/kg dose of compound via jugular cannula, followed by a wash-out with saline. Blood samples (0.25 mL) were taken from the jugular at 5, 15 and 30 minutes and at 1, 2, 4, 6, 9, 12, and 24 hours post-dosing. Blood samples were centrifuged within 15 minutes of removal from the animal, centrifuged, and the plasma fraction removed and stored at −20° C. until analysis. Samples were analyzed by LC-MS.

[2] = Pharmacokinetics in rats, oral dosing; conditions: rat, oral dosing 20 mg/kg, tosylate salt; data not shown

With Cc1ccc(S(=O)(=O)O)cc1.Cc1ccc(S(=O)(=O)O)cc1.[2H]C([2H])(CS(C)(=O)=O)NC([2H])([2H])c1ccc(-c2ccc3ncnc(Nc4ccc(OCc5cccc(F)c5)c(Cl)c4)c3c2)o1 [Compound 101, [3-Chloro-4-(3-fluorobenzyloxy)phenyl]-(6-{5-[(2-methanesulfonyl-1,1-d2-ethylamino)-d2-methyl]-furan-2-yl}-quinazolin-4-yl)amine di-tosylate] the “half-life compared to lapatinib” value [1] was “significantly longer half-lives than lapatinib” and the “half life compared to lapatinib” value [2] was “longer half lives than lapatinib”.

In the case of Cc1ccc(S(=O)(=O)O)cc1.Cc1ccc(S(=O)(=O)O)cc1.[2H]C([2H])(NC([2H])([2H])C([2H])([2H])S(=O)(=O)C([2H])([2H])[2H])c1ccc(-c2ccc3ncnc(Nc4ccc(OCc5cccc(F)c5)c(Cl)c4)c3c2)o1 [Compound 102, [3-Chloro-4-(3-fluoro-benzyloxy)-phenyl]-(6-{5-[(2-d3-methanesulfonyl-1,1,2,2-4-ethylamino)-d2-methyl]-furan-2-yl}-quinazolin-4-yl)amine di-tosylate], the “half-life compared to lapatinib” value [1] is reported as “significantly longer half-lives than lapatinib” and the “half life compared to lapatinib” value [2] is reported as “longer half lives than lapatinib”.

For CS(=O)(=O)CCNCc1ccc(-c2ccc3ncnc(Nc4ccc(OCc5cccc(F)c5)c(Cl)c4)c3c2)o1.Cc1ccc(S(=O)(=O)O)cc1 [Lapatinib, [3-Chloro-4-(3-fluorobenzyloxy)phenyl](6-{5-[(2-methanesulfonylethylamino)-methyl]furan-2-yl}-quinazolin-4-yl)amine 4-toluenesulfonate salt, reference compound], the half-life ([1]; Sprague-Dawley, tosylate salt, plasma) was 1 ± 0.05 h.
